Earlier results, collected in US6653500B2, “Method for the manufacture of Anagrelide” (Shire US Inc., priority 2000, dated 2003).
Read-outs that look alike come from different tables or passages of the source.

How the values were obtained:
[1] = humans, radiolabeled base
[2] = solid
[3] = monkeys, radiolabeled base

absorption into blood plasma [1]: complete absorption
aqueous solubility [2]: low
absorption into blood plasma [3]: complete absorption
solubility in most organic solvents: low
SMILES: O=C1CN2Cc3c(ccc(Cl)c3Cl)N=C2N1 [compound III, 6,7-dichloro-1,5-dihydroimidazo[2,1-b]quinazolin-2(3H)-one]
